Structures are written as SMILES.

Experiment [1] concerns 4mm punch wound in Balb/c mice. The experiment can be described thus: Topical applications on 4 mm punch wounds, visual contraction of wounds (Example 5). The experiment is classed as in vivo, mouse. The settings on record: for Relative efficacy (wound contraction): topical agent on wound, uracil 100 μM, two weeks. As to the method:
Balb/c mice were divided into three dietary groups (F=normal mouse chow; NF=nucleotide free mouse chow; and NFR=nucleotide free mouse chow supplemented with yeast RNA). Each group was fed before initiation of wounds. After 4 weeks of feeding, a 4mm punch wound was created on the dorsal surface of each mouse, using a 4mm biopsy punch. The wounds were coated with four different topical agents: 1) saline; 2) uracil {100 μM concentration); 3) saline+CCM; and 4) Uracil+CCM (CCM=crosslinked collagen mesh). CCM is ‘Collagen Permeable Membrane’ from Accurate Chemical & Scientific Corporation, catalog no. YIC 152299. Four mm size circles were soaked with appropriate nucleotide or saline solution (4mm punch wounds) and used to dress the wounds.
Twelve groups were formed from these combinations (n=3). Mice were continued on their respective diets. Wounds were observed visually and photographed at four different times during the experimental period of two weeks.
A record was made of the progressive contraction of the wounds and area among the various dietary and treatment groups.

Experiment [2] concerns wound cylinder of PTFE in Balb/C mice. Put plainly: Wound hydroxyproline content in PTFE wound cylinder, adenine/uracil/RNA diets (Example 2, FIG. 1). It counts as in vivo, mouse. Conditions: for amount of OHP/cm PTFE over both the nucleotide free and the non-supplemented diets: diet at least 30 days before implantation, tenth post-operative day. An excerpt:
Twenty-five Balb/C mice were divided into five test groups (n=5) and housed in groups in the animal care facilities. Each group received one of the following diets ad libertum: F—normal mouse chow, NF—nucleotide free diet, NFR—yeast RNA supplemented diet, NFA—adenine supplemented diet, and NFU—uracil supplemented diet. All groups received these diets for at least 30 days prior to wound cylinder implantation. All animals received water ad libitum.
Polytetrafluorethylene (PTFE, Impra Vascular Graft, 3 mm lumen, […]) wound cylinders (1.5 cm long) were placed subcutaneously in the dorsal midline of each animal under general anesthesia (Methoxyflurane, inhalation). All animals were continued on their test diets. On the tenth post-operative day, all animals were euthanized by cervical dislocation and the would cylinders were removed for analysis.
Wound cylinders were analyzed for hydroxyproline (OHP) content using the method of Woessner. Briefly, approximately 1 cm segments of the wound cylinders were hydrolyzed in 0.5 ml 6 N HCl for 3 hours at 130 C. Samples were cooled and 0.5 ml aliquots were neutralized with the appropriate volume of 1 N NaOH. Each sample was diluted to 5.25 ml with H2O in order to reduce the total NaCl concentration to below 0.4 M. Each sample was then reacted as described by Woessner.

In the case of `OC[C@H]1O[C@@H](n2cnc3c(O)ncnc32)[C@H](O)[C@@H]1O` [inosine], in experiment [1] (100 μM as topical agent in place of uracil), the “results compared with uracil as topical agent” value is given as “no significant differences”.
Turning to `O=c1cc[nH]c(=O)[nH]1` [uracil], the “Relative efficacy (wound contraction)” value in experiment [1] (Diet F (normal mouse chow)) is reported as “moderate”; in experiment [1] (Diet NF (nucleotide free chow)), “minimal”; in experiment [1] (Diet NFR (yeast RNA supplemented)) it was “moderate”. Further, the “amount of OHP/cm PTFE over both the nucleotide free and the non-supplemented diets” value in experiment [2] was “increased”.
As to `Nc1ncnc2nc[nH]c12` [Adenine, adenine], in experiment [2], the “fold increase of the amount of OHP in the wound” value was “close to two times”; the “significance of OHP increase over the non-supplemented diet” value was “statistically significant”; the “significance of OHP increase over the nucleotide free diet” value was “significant”; the “amount of OHP/cm PTFE over both the nucleotide free and the non-supplemented diets” value is “increased”.

For the origin of these results see patent US6342484B1, “Method and compositions for promotion of wound treatment” (Board of Regents, The University of Texas Systems, priority 1993, dated 2002).
